Data on three molecules can be found in patent publication US20240246942A1, “KINASE INHIBITORS FOR THE TREATMENT OF NEURODEGENERATIVE DISEASES” (priority 2020, published 2024).

Holding throughout (experiment): biochemical
Test [1] concerns the target T1, panel of 374 wild-type kinases (Homo sapiens, UniProt P22694).
T1 construct: purchased Reaction Biology Corporation
Conditions: read-out: % Enzyme Activity (relative to DMSO controls), kinase PKAcb.

Test [2] has as its target T2, panel of 374 wild-type kinases (Homo sapiens, UniProt Q14680).
T2 construct: purchased Reaction Biology Corporation
Conditions: read-out: % Enzyme Activity (relative to DMSO controls), MELK.

Test [3] has as its target T3, panel of 374 wild-type kinases (Homo sapiens, UniProt Q8N568).
T3 construct: purchased Reaction Biology Corporation
T3 sequence (Q8N568 1-766): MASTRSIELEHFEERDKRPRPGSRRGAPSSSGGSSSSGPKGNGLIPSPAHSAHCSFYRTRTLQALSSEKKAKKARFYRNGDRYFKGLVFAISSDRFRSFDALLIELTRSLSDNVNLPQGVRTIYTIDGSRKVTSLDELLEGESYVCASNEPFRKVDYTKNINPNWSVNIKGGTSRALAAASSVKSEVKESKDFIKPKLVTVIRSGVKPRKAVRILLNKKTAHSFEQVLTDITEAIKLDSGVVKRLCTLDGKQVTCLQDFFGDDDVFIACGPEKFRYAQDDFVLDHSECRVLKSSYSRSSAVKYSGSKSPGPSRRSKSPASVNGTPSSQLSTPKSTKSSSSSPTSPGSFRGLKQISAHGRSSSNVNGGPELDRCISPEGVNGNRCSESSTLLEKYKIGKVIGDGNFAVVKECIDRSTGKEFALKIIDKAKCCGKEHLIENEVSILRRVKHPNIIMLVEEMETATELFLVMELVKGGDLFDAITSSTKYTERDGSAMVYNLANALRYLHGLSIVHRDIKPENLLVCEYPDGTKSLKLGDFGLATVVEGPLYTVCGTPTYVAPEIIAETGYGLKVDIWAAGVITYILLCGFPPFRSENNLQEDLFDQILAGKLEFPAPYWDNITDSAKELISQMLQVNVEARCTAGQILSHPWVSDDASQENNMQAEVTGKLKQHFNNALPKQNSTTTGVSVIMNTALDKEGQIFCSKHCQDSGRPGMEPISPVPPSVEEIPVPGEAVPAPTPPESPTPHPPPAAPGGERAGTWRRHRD
The conditions noted are these: read-out: % Enzyme Activity (relative to DMSO controls), DCAMKL2.

Test [4] deals with T4, panel of 374 wild-type kinases (Homo sapiens, UniProt Q8NE63).
T4 construct: purchased Reaction Biology Corporation
T4 sequence (Q8NE63 1-616): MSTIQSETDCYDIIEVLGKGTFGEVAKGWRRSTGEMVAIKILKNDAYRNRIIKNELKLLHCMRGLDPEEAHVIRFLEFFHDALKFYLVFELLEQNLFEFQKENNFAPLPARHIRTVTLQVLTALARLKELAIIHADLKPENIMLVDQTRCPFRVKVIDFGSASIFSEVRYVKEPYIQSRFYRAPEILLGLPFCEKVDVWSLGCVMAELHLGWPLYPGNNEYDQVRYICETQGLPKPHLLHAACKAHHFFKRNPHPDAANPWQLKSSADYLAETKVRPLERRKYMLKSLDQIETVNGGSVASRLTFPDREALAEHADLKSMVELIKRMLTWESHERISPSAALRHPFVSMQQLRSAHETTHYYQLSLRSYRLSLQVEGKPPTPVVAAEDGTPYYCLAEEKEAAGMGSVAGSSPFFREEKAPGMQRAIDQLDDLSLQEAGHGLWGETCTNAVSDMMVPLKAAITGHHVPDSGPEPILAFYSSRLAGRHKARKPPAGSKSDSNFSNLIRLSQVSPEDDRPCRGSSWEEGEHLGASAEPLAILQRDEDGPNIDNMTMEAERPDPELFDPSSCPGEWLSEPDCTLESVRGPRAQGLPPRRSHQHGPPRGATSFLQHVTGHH
Conditions: read-out: % Enzyme Activity (relative to DMSO controls), HIPK4.

In test [5] the target is T5, panel of 374 wild-type kinases (Homo sapiens, UniProt Q8TDC3).
T5 construct: purchased Reaction Biology Corporation
T5 sequence (Q8TDC3 1-778): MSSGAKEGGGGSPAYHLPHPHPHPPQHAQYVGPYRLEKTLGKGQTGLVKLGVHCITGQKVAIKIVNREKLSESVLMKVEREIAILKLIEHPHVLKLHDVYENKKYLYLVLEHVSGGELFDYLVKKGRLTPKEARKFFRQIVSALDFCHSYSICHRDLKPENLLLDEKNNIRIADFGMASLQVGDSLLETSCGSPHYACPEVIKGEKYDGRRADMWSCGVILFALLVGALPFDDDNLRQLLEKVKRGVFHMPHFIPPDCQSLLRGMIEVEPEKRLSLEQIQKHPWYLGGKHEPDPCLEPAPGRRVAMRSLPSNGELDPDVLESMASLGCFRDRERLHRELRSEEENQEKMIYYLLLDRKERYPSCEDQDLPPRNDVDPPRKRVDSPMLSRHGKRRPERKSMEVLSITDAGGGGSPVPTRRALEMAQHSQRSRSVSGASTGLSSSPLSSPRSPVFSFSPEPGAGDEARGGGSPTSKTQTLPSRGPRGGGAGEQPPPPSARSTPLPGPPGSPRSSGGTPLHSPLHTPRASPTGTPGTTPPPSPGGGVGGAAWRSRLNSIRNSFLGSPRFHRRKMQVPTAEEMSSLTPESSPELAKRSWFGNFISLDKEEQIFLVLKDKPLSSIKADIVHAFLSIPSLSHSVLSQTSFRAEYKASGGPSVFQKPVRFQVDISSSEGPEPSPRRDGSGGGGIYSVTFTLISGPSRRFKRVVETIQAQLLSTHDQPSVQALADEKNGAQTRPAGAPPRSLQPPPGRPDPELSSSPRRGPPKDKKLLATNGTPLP
Conditions: read-out: % Enzyme Activity (relative to DMSO controls), BRSK1.

Test [6] concerns the target T6, panel of 374 wild-type kinases (Homo sapiens, UniProt Q8TDX7).
T6 construct: purchased Reaction Biology Corporation
Conditions: read-out: % Enzyme Activity (relative to DMSO controls), NEK7.

T2 sequence (Q14680 whole entry): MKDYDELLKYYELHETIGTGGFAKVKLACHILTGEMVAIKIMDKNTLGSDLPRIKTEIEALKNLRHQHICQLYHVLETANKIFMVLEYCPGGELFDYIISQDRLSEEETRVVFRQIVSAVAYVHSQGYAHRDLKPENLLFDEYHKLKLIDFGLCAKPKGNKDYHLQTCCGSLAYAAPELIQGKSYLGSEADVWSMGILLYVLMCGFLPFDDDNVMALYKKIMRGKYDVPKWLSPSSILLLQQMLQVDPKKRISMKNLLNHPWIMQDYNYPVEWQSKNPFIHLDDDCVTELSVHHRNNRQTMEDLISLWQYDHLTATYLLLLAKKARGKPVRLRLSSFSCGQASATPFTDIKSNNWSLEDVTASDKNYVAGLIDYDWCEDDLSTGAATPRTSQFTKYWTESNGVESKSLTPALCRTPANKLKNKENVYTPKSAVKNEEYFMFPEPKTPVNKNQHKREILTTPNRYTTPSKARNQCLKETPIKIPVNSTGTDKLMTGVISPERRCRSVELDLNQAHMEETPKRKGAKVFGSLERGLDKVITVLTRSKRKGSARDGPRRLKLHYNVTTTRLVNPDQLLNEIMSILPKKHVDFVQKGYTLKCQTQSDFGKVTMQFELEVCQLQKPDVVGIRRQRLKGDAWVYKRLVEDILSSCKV
T6 sequence (Q8TDX7 whole entry): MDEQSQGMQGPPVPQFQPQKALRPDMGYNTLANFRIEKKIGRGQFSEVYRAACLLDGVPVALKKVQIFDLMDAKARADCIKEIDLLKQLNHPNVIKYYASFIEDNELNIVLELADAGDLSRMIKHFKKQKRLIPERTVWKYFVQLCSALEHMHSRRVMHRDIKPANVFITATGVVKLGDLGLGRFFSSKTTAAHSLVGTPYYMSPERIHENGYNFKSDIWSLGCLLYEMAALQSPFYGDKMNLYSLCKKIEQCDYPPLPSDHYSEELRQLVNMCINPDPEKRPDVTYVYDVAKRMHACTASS

As for `Cc1sc(C(=O)NC2COC2)cc1-n1cc(NC(=O)Nc2c(F)cccc2Cl)cn1` [Compound 27, 4-(4-(3-(2-chloro-6-fluorophenyl)ureido)-1H-pyrazol-1-yl)-5-methyl-N-(oxetan-3-yl)thiophene-2-carboxamide], the remaining activity at 10 µM in test [1] (10 uM) stood at 104%; in test [2] (10 uM) it was 103%; in test [3] (10 uM), 107%; in test [4] (10 uM), 98.4%; in test [5] (10 uM) it was 87.8%; in test [6] (10 uM) it was 100%.

As to `O=C(Nc1cnn(-c2csc(C(=O)NC3COC3)c2)c1)Nc1c(F)cccc1Cl` [Compound 25, 4-(4-(3-(2-chloro-6-fluorophenyl)ureido)-1H-pyrazol-1-yl)-N-(oxetan-3-yl)thiophene-2-carboxamide], the remaining activity at 5 µM in test [1] was 98.3%; in test [2], 61.4%; in test [3], 94.3%; in test [4], 111%; in test [5], 99.4%; in test [6], 88.1%.

With `O=C(Nc1cnn(-c2csc(C(=O)NC3COC3)c2)c1)Nc1ccccc1Cl` [Compound 17, 4-(4-(3-(2-chlorophenyl)ureido)-1H-pyrazol-1-yl)-N-(oxetan-3-yl)thiophene-2-carboxamide], the remaining activity at 5 µM in test [1] worked out at 99%; in test [2] it was 48.7%; in test [3], 99.9%; in test [4], 100%; in test [5], 85.5%; in test [6], 102%.
